# Key:
# PA14 = test: MIC assay, WT PA14; format: cell-based, Pseudomonas aeruginosa; conditions: WT PA14, iron-limited medium (10:90)
# Description: (§1) MIC assays were conducted as previously described ([13], [14]). Overnight cultures were grown in LB from a glycerol stock at 37°C with shaking (200 rpm). Subcultures in 10:90 (1:100 dilution) were cultured for 4 h. Cells were adjusted to an optical density at 600 nm (OD600) of 0.1/500 in 10:90. All compounds were serially diluted 2-fold in dimethyl sulfoxide (DMSO) or H2O at 75× the final concentration. Plates were sealed to prevent evaporation and incubated at 37°C overnight in a shaking incubator (200 rpm). The next day, the OD600 was determined with a plate reader (Thermo Scientific) and normalized to percent of growth of the vehicle control after subtracting the OD600 from blank media.
# PA14 ΔfpvA mutant = test: MIC assay, ΔfpvA mutant; format: cell-based, Pseudomonas aeruginosa; conditions: ΔfpvA mutant, iron-limited medium (10:90)
# Description: as §1
# PA14 ΔfpvB mutant = test: MIC assay, ΔfpvB mutant; format: cell-based, Pseudomonas aeruginosa; conditions: 10:90, growth reduced at 17 μg/mL
# Description: as §1
# PA14 ΔfpvA ΔfpvB mutant = test: MIC assay, ΔfpvA ΔfpvB mutant; format: cell-based, Pseudomonas aeruginosa; conditions: ΔfpvA ΔfpvB mutant, 10:90
# Description: as §1
# [1] = tested on: PA14 ΔfpvA ΔfpvB pHERD20T-fpvA; test: MIC assay, ΔfpvA ΔfpvB complemented with fpvA; format: cell-based, Pseudomonas aeruginosa; conditions: complementation with fpvA, arabinose induction, 10:90
# Description: (§2) The ΔfpvA ΔfpvB mutant was complemented in trans with pHERD20T-fpvA or pHERD20T-fpvB. pHERD20T is an arabinose-inducible vector with expression driven by the PBAD promoter under the control of AraC ([30]).
# as §1
# [2] = tested on: PA14 ΔfpvA ΔfpvB pHERD20T-fpvB; test: MIC assay, ΔfpvA ΔfpvB complemented with fpvB; format: cell-based, Pseudomonas aeruginosa; conditions: complementation with fpvB, arabinose induction, 10:90; susceptibility greater than with fpvA
# Description: as §2, §1
# [3] = tested on: PA14 ΔfpvA ΔfpvB ΔfiuA ΔfoxA quadruple mutant; test: Growth phenotypes of deletion mutants, quadruple mutant; format: cell-based, Pseudomonas aeruginosa; conditions: 17 μg/mL TS, 10:90
# Source text: PA14, ΔfpvA, ΔfpvB, and ΔfpvA ΔfpvB strains treated with TS (A) and DSX (B) in 10:90. Green indicates growth, and white indicates no growth. Growth is expressed as percent of control. The PA14 ΔfpvA ΔfpvB strain complemented with pHERD20T, fpvA, or fpvB treated with TS (C) and DSX (D) in 10:90. […] All experiments are averaged from three independent biological replicates. Blue indicates growth and white indicates no growth. (H) Summary of growth phenotypes of WT PA14 and combinations of single, double, triple, and quadruple deletion mutants in fpvA, fpvB, fiuA, and foxA. […] Green indicates growth, whereas no growth is indicated in white. […] Representative plates are shown.
# If there were no transporters for a particular siderophore, the mutant would fail to grow due to iron restriction.
# [4] = highest concentration tested, 10μM fluorescein-5-maleimide in PBS
# Description: Supplementary file : FIG S4 (A) Microscopy images of the PA14 ΔfpvA ΔfpvB strain with pHERD20T, pHERD20T-fpvA, and pHERD20T-fpvB treated with Alexa Fluor 594. Representative images are shown. Scale, 5μm. (B) TS partly quenches fluorescence of fluorescein-5-maleimide in the absence of cells. Each compound at the highest concentration tested was added to 10μM of fluorescein-5-maleimide in PBS in triplicate. TS reduced fluorescence to about 80% of the control. (Excitation, 485nm; emission, 528nm). ***, P < 0.001 (Student’s t test). […] Results are averaged from three independent biological replicates. Download FIG S4, EPS file, 39.8 MB.
# TS was omitted from these studies because it quenched fluorescence (~20%) of the dye in the absence of cells (Fig. S4B). In the absence of protein, none of the three siderophores quenched fluorescence of the dye at the highest concentrations tested. Quenching curves were then generated and used to calculate the dissociation constant (Kd).
# [5] = tested on: PA14 ΔfpvA ΔfpvB pHERD20T-fpvA T660C; test: MIC assay, ΔfpvA ΔfpvB expressing FpvA T660C; format: cell-based, Pseudomonas aeruginosa; conditions: 10:90 + 2% arabinose
# Source text: (§3) FpvA T660C was used previously to measure pyoverdine-Fe^3+ binding affinity ([32]). However, this technique has not been applied to FpvB. A high-confidence structural model of FpvB was generated using AlphaFold2 ([33], [34]) and aligned with the structure of FpvA (PDB accession number 2O5P) to identify a residue suitable for labeling, with the assumption that FpvA and FpvB undergo similar conformational changes upon ferrisiderophore binding (see Fig. S3A through C in the supplemental material). Based on this analysis, FpvB R648 was mutated to Cys. FpvA T660C and FpvB R648C were each expressed in trans in the ΔfpvA ΔfpvB mutant. […] We could also detect expression by fluorescence microscopy with peripheral labeling consistent with expression in the outer membrane (Fig. 3B). Labeling was undetectable in empty vector and WT controls (see Fig. S4A in the supplemental material).
# (§4) Supplementary file : FIG S3 Overlay of FpvA and FpvB showing residues mutated to cysteine for labeling with maleimide dyes. FpvA (PDB accession number 2O5P) was superimposed with the AlphaFold2 model of FpvB. FpvA is shown in beige and FpvB in blue. […]
# (§5) MIC assays were conducted as previously described ([13], [14]). […] The next day, the OD600 was determined with a plate reader (Thermo Scientific) and normalized to percent of growth of the vehicle control after subtracting the OD600 from blank media.
# [6] = tested on: PA14 ΔfpvA ΔfpvB pHERD20T-fpvB R648C; test: MIC assay, ΔfpvA ΔfpvB expressing FpvB R648C; format: cell-based, Pseudomonas aeruginosa; conditions: 10:90 + 2% arabinose
# Source text: as §3, §4, §5
# [7] = tested on: PA14 ΔfpvA ΔfpvB ΔfiuA ΔfoxA pHERD20T; test: Growth of quadruple mutant with empty vector; format: cell-based, Pseudomonas aeruginosa; conditions: 10:90 + 2% arabinose
# Description: (§6) Site-directed mutagenesis was used to confirm the docking predictions and to define the molecular determinants for ligand uptake through FpvB (Fig. 4C). We generated 17 single amino acid substitutions in FpvB and expressed each of them in trans in the quadruple ΔfpvA ΔfpvB ΔfiuA ΔfoxA mutant. Their ability to complement growth of the mutant in the presence of ferrichrome and ferrioxamine B and to restore TS susceptibility was assessed. […] The mutant transporters were tagged with a C-terminal FLAG tag to evaluate expression levels. FLAG-tagged FpvB mutants had WT levels of expression except for Y216T and W347V, which were expressed at 140% and 25% of WT, respectively.
# (§7) The ΔfpvA ΔfpvB ΔfiuA ΔfoxA mutant was complemented with WT fpvA, fpvB, fiuA, and foxA in trans as controls (Fig. 4E).
# as §1, with “Plates were sealed to prevent evaporation and incubated at 37°C overnight in a shaking incubator (200 rpm).” left out
# [8] = tested on: PA14 ΔfpvA ΔfpvB ΔfiuA ΔfoxA pHERD20T-fpvB Y216T; test: Growth of quadruple mutant expressing FpvB Y216T; format: cell-based, Pseudomonas aeruginosa; conditions: 10:90 + 2% arabinose
# Description: as §6, §7
# as §1, with “Plates were sealed to prevent evaporation and incubated at 37°C overnight in a shaking incubator (200 rpm).” left out
# [9] = tested on: PA14 ΔfpvA ΔfpvB ΔfiuA ΔfoxA pHERD20T-fpvB D219A; test: Growth of quadruple mutant expressing FpvB D219A; format: cell-based, Pseudomonas aeruginosa; conditions: 10:90 + 2% arabinose
# Description: as §6, §7
# as §1, with “Plates were sealed to prevent evaporation and incubated at 37°C overnight in a shaking incubator (200 rpm).” left out
# [10] = tested on: PA14 ΔfpvA ΔfpvB ΔfiuA ΔfoxA pHERD20T-fpvB Y412A; test: Growth of quadruple mutant expressing FpvB Y412A; format: cell-based, Pseudomonas aeruginosa; conditions: 10:90 + 2% arabinose
# Description: as §6, §7
# as §1, with “Plates were sealed to prevent evaporation and incubated at 37°C overnight in a shaking incubator (200 rpm).” left out
# [11] = Maximum soluble TS concentration; conditions: in MIC assay medium
compound,measurement,setting,value
"C=C(NC(=O)C(=C)NC(=O)c1csc(C2=N[C@@H]3c4csc(n4)[C@H]4NC(=O)c5csc(n5)[C@H]([C@](C)(O)[C@@H](C)O)NC(=O)[C@H]5CSC(=N5)/C(=C/C)NC(=O)[C@H]([C@@H](C)O)NC(=O)c5csc(n5)[C@]3(CC2)NC(=O)[C@H](C)NC(=O)C(=C)NC(=O)[C@H](C)NC(=O)[C@H]([C@@H](C)CC)N[C@@H]2C=Cc3c([C@H](C)O)cc(nc3[C@H]2O)C(=O)O[C@@H]4C)n1)C(N)=O [TS, thiostrepton]",TS susceptibility (MIC assay),PA14,susceptible
same,TS susceptibility (MIC assay),PA14 ΔfpvA mutant,susceptible
same,TS susceptibility (MIC assay),PA14 ΔfpvB mutant,resistant
same,TS susceptibility (MIC assay),PA14 ΔfpvA ΔfpvB mutant,resistant
same,TS susceptibility,[1],restored TS susceptibility
same,TS susceptibility,[2],restored TS susceptibility
same,TS susceptibility,[3],resistant
same,dye fluorescence remaining,[4],about 80 % of the control
same,quenching of dye fluorescence in the absence of cells,[4],~ 20%
same,increase of susceptibility to TS compared to WT FpvA,[5],4 fold
same,TS susceptibility,[6],WT susceptibility
same,TS susceptibility,[7],resistant
same,TS susceptibility,[8],reduced TS susceptibility
same,TS susceptibility,[9],reduced TS susceptibility
same,TS susceptibility,[10],reduced TS susceptibility
same,maximum soluble concentration,[11],17 µg/mL

# Reference: PMC9973354 (mBio, 2022)
